In EP0998931A1, “REMEDIES FOR DRY EYE” (priority 1997, dated 1998):
Where two headings read alike, the source gives them in different places.

System: TG-I m RNA
Assay: Expression amounts of TG-I mRNA by RT-PCR in cultured corneal epithelial cells (G3PDH internal standard)
Format: cell-based, human
Settings: for inhibition at 1 µM: read-out: inhibition (of TG-I m RNA expression)
Method: Glyceraldehyde-3-phosphoric acid dehydrogenase (G3PDH) was used as an internal standard in consideration of scatter of template total RNA amounts.
Cultured SV40 immortalized human corneal epithelial cells (1 × 10^6 cells) were cultured in a culture medium (DMEM/F12) containing a test compound under a condition of 37°C and 5% CO2 for 72 hours. After culturing, total RNA was extracted according to the AGPC method. Then, RT-PCR was carried out using a primer which is specific for TG-I m RNA or G3PDH m RNA using a Takara RNA-PCR kit (AMV). PCR products were electrophoresed on 1% agarose gel, and bands were detected with a transilluminator. Cells cultured in a culture medium containing no test compound in the same manner were used as a control.
The expression amounts of TG-I m RNA were calculated according to the following equation 1 so that an expression amount in the control was 100. Expression amount = (B/A) × 100 [formula] • A: A band area of a TG-I amplified fragment on the basis of a band area of a G3PDH amplified fragment in the control • B: A band area of a TG-I amplified fragment on the basis of a band area of a G3PDH amplified fragment in the presence of the test compound

## C=C1/C(=C\C=C2/CCC[C@]3(C)[C@@H]([C@H](C)CC[C@@H](O)C(C)C)CC[C@@H]23)C[C@@H](O)C[C@@H]1O [1α , 24 (R)-Dihydroxyvitamin D3]
10 nM, 100 nM and 1000 nM
  inhibition of TG-I m RNA expression, dependence on concentration: concentration-dependent inhibition was observed
Corneal epithelial cell, 10 nM test compound, 72 hours culture, SV40 immortalized human corneal epithelial cells, control = 100, read-out: Expression amount
  mrna remaining at 0.01 µM: 66%
Corneal epithelial cell, 100 nM test compound, 72 hours culture, SV40 immortalized human corneal epithelial cells, control = 100, read-out: Expression amount
  mrna remaining at 0.1 µM: 39%
Corneal epithelial cell, 1000 nM test compound, 72 hours culture, SV40 immortalized human corneal epithelial cells, control = 100, read-out: Expression amount
  mrna remaining at 1 µM: 22%
Homo sapiens, Corneal epithelial cell, 72 h, concentration of 10 nM
  inhibition at 0.01 µM: 34%
Homo sapiens, Corneal epithelial cell, 72 h, concentration of 10 nM, relative to control, read-out: expression amounts of TG-I m RNA in the corneal epithelial cells
  mrna remaining at 0.01 µM: 66%
Homo sapiens, Corneal epithelial cell, 72 h, concentration of 100 nM
  inhibition at 0.1 µM: 61%
Homo sapiens, Corneal epithelial cell, 72 h, concentration of 100 nM, relative to control, read-out: expression amounts of TG-I m RNA in the corneal epithelial cells
  mrna remaining at 0.1 µM: 39%
Homo sapiens, Corneal epithelial cell, 72 h, concentration of 1000 nM
  inhibition at 1 µM: 78%
Homo sapiens, Corneal epithelial cell, 72 h, concentration of 1000 nM, relative to control, read-out: expression amounts of TG-I m RNA in the corneal epithelial cells
  mrna remaining at 1 µM: 22%

## C=C1/C(=C\C=C2/CCC[C@]3(C)[C@@H]([C@H](C)CCCC(C)(C)O)CC[C@@H]23)C[C@@H](O)C[C@@H]1O [1α , 25-Dihydroxyvitamin D3]
Homo sapiens, Corneal epithelial cell, 72 h, read-out: Expression amount
  mrna remaining at 1 µM: 48%
Homo sapiens, Corneal epithelial cell, 72 h, read-out: expression amounts of TG-I m RNA in the corneal epithelial cells
  mrna remaining at 1 µM: 48%
Homo sapiens, Corneal epithelial cell, 72 h
  inhibition at 1 µM: 52%
Comparative compound at 1000 nM
  inhibitory effect relative to that of 1α , 24 (R)-dihydroxyvitamin D3: one tenth or less
